Results from patent US8378104B2 (OSI Pharmaceuticals, LLC, priority 2010, dated 2013).
Where a name gives a salt, the structure may show the parent alone. Read-outs that look alike come from different tables or passages of the source.

Columns and labels:
p-p38 in HCT-116 cells = assay: Phospho-p38 Meso Scale ELISA assay, TNFα-stimulated HCT-116 cells; format: cell-based; settings: Homo sapiens, read-out: mean HCT-116 p-p38 ELISA IC50 (Col. C)
Protocol: Detailed below are ELISA assays for pJNK and p38, and a TAK1 biochemical assay. […] In Table 1, Col.
• 1. Plate HCT-116 cells at 25,000 per well in 100 uL in 96 well clear dishes in normal growth medium. Day 2: • 1. Aspirate medium and replace with 90 μl reduced serum growth medium (1% FCS), incubate for 2 hours at 37° C. • 2. Make drugs at 10× in reduced serum medium and add 10 uL per well. • 3. Incubate at 37° C. for 4 hrs. • 4. Bring capture plates to room temperature. • 5. Block with 150 μl Blocking Solution (provided with kit) (600 mg Blocker A into 20 mL 1× Wash Buffer per plate) at room temperature with shaking. • 6. Wash plates 4× with 200 μl 1× wash buffer (10× provided with kit) before transferring lysates. • 7. Dilute TNFα to […] in reduced serum medium (this makes a 10× working stock). • 8. Add 10 μl TNFα to all wells except negative control wells, final concentration is 10 ng/mL. • 9. Incubate at 37° C. for 10 minutes. • 10. Remove medium by flicking into sink • 11. Wash cells with 100 uL ice cold PBS. • 12. Remove PBS by flicking into sink and patting on paper towels. • 13. Lyse cells in 50 μl ice cold 1× Complete Lysis Buffer plus Phosphatase and Protease inhibitors (all provided with kit) (10 mL Tris Lysis Buffer+200 μl Protease inhibitor solution+100 μl Phosphatase inhibitor I+100 μl Phosphatase inhibitor II). • 14. Incubate with shaking at 4° C. for 30 minutes. • 15. Transfer 45 μl to capture plate, cover with adhesive cover, and incubate at 4° C. over night with shaking. • Day 3: • 1. Wash plates 4× with 200 μl 1× wash buffer (10× provided with kit). • 2. […] Incubate at room temperature with shaking for 1 hour. • 4. Wash 4× with 200 μl 1× Wash Buffer. • 5. […] Read on Sector Imager. Phospho-p38 Meso Scale ELISA Assay Day 1: • 1. Plate HCT-116 cells at 25,000 per well in 100 uL in 96 well clear dishes in normal growth medium. zday 2: • 1. Aspirate medium and replace with 90 μl reduced serum growth medium (1% FCS), incubate for 2 hours at 37° C. • 2. Make drugs at 10× in reduced serum medium and add 10 uL per well. • 3. Incubate at 37° C. for 4 hrs. • 4. Bring capture plates to room temperature. • 5. Block with 150 μl Blocking Solution (provided with kit) (600 mg Blocker A into 20 mL 1× Wash Buffer per plate) at room temperature with shaking. • 6. Wash plates 4× with 200 μl 1× wash buffer (10× provided with kit) before transferring lysates. • 7. Dilute TNFα to […] in reduced serum medium (this makes a 10× working stock). • 8. Add 10 μl TNFα to all wells except negative control wells, final concentration is 10 ng/mL. • 9. Incubate at 37° C. for 10 minutes. • 10. Remove medium by flicking into sink • 11. Wash cells with 100 uL ice cold PBS. • 12. Remove PBS by flicking into sink and patting on paper towels. • 13. Lyse cells in 50 μl ice cold 1× Complete Lysis Buffer plus phosphatase and protease inhibitors (all provided with kit) (10 mL Tris Lysis Buffer+200 μl Protease inhibitor solution+100 μl Phosphatase inhibitor I+100 μl Phosphatase inhibitor II). • 14. Incubate with shaking at 4° C. for 30 minutes. • 15. Dilute lysates before transferring to capture plate with 100 μl Complete p38 Lysate • Dilution Buffer (provided with kit) (10 mL of Diluent 20±200 μl Protease inhibitor solution+100 μl Phosphatase inhibitor I+100 μl Phosphatase inhibitor II). • 16. Transfer 50 μl of diluted lysates to capture plate, cover with adhesive cover, and incubate at 4° C. over night with shaking. Day 3: • 1. Wash plates 4× with 200 μl 1× wash buffer (10× provided with kit). • 2. […] Incubate at room temperature with shaking for 1 hour. • 4. Wash 4× with 200 μl 1× Wash Buffer. • 5. […] Read on Sector Imager. TAK1 Biochemical Assay

pJNK in HCT-116 cells = assay: Phospho-JNK (Thr183/Tyr185) Meso Scale ELISA assay, TNFα-stimulated HCT-116 cells; format: cell-based; settings: Homo sapiens, read-out: mean HCT-116 pJNK ELISA IC50 (Col. B)
How it was run: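 HCT-116 cells in 1% FCS medium were pretreated with compound for 4 hrs at 37° C, then stimulated with TNFα at 10 ng/mL final for 10 minutes. Lysates were taken in ice-cold lysis buffer with phosphatase and protease inhibitors, and phospho-JNK (Thr183/Tyr185) was measured by Meso Scale ELISA.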

TAK1-TAB1 fusion protein = biological target: T1, TAK1-TAB1 fusion protein (Homo sapiens, UniProt O43318); assay: TAK1 biochemical assay (AlphaScreen, GST-MAP2K7 substrate)
T1 construct: purchased Carna
T1 sequence (O43318 with tags, fused parts or gaps limits assumed): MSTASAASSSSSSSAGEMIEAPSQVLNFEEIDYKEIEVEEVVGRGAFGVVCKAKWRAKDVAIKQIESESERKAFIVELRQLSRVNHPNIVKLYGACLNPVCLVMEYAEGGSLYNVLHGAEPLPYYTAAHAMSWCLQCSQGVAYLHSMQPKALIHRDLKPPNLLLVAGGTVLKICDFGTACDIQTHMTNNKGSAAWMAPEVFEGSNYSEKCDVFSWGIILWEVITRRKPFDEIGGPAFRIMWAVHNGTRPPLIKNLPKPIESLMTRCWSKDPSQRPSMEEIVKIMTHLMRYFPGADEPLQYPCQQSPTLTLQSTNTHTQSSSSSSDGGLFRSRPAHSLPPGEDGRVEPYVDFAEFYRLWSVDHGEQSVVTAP

[1] = TAK1-TAB1 fusion protein, GST-MAP2K7 substrate, read-out: mean TAK1 IC50 (Col. A)

| Compound | IC50 (p-p38 in HCT-116 cells) [nM] | IC50 (pJNK in HCT-116 cells) [nM] | IC50 (TAK1-TAB1 fusion protein; [1]) [nM] | IC50 (TAK1-TAB1 fusion protein) [nM] |
| --- | --- | --- | --- | --- |
| CC(=O)N1CCC(n2cc(-c3cnc(N)c4oc(-c5scc6c5OCCO6)cc34)cn2)CC1 [Example 109, 1-(4-{4-[7-amino-2-(2,3-dihydrothieno[3,4-b][1,4]dioxin-5-yl)furo[2,3-c]pyridin-4-yl]-1H-pyrazol-1-yl}piperidin-1-yl)ethanone] | 1000 to 10000 | 100 to 1000 | 100 to 1000 |  |
| Nc1ncc(-c2cnn(C3CCOCC3)c2)c2cc(-c3cccc4cnccc34)oc12 [Example 74, 2-(isoquinolin-5-yl)-4-[1-(tetrahydro-2H-pyran-4-yl)-1H-pyrazol-4-yl]furo[2,3-c]pyridin-7-amine] | 1000 to 10000 | 100 to 1000 | 100 to 1000 |  |
| C[C@]1(O)CC[C@@H](n2cc(-c3cnc(N)c4oc(-c5cccc6cnccc56)cc34)cn2)CC1 [Example 76, cis-4-{4-[7-amino-2-(isoquinolin-5-yl)furo[2,3-c]pyridin-4-yl]-1H-pyrazol-1-yl}-1-methylcyclohexanol] | 100 to 1000 | 100 to 1000 | 100 to 1000 |  |
| Nc1ncc(-c2cnn([C@H]3CC[C@H](O)CC3)c2)c2cc(-c3cc(F)cc4cnsc34)oc12 [Example 238, trans-4-{4-[7-amino-2-(5-fluoro-1,2-benzothiazol-7-yl)furo[2,3-c]pyridin-4-yl]-1H-pyrazol-1-yl}cyclohexanol diformate salt] | 100 to 1000 | < 100 | 100 to 1000 |  |
| CN1CCC(n2cc(-c3cnc(N)c4oc(-c5cccc6cnccc56)cc34)cn2)CC1 [Example 77, 2-(isoquinolin-5-yl)-4-[1-(1-methylpiperidin-4-yl)-1H-pyrazol-4-yl]furo[2,3-c]pyridin-7-amine] | 100 to 1000 | < 100 | 100 to 1000 |  |
| CC(=O)N1CCC(n2cc(-c3cnc(N)c4oc(-c5ccc6occc6c5)cc34)cn2)CC1 [Example 114, 1-(4-{4-[7-amino-2-(1-benzofuran-5-yl)furo[2,3-c]pyridin-4-yl]-1H-pyrazol-1-yl)piperidin-1-yl]ethanone] | 100 to 1000 | 100 to 1000 | 1000 to 10000 |  |
| Nc1ncc(-c2cn[nH]c2)c2cc(-c3cccc4cnccc34)oc12 [Example 69, 2-(isoquinolin-5-yl)-4-(1H-pyrazol-4-yl)furo[2,3-c]pyridin-7-amine] | 100 to 1000 | 100 to 1000 | 1000 to 10000 |  |
| Nc1ncc(-c2cnn([C@H]3CC[C@H](O)CC3)c2)c2cc(-c3c(F)ccc4cnsc34)oc12 [Example 240, trans-4-{4-[7-amino-2-(6-fluoro-1,2-benzothiazol-7-yl)furo[2,3-c]pyridin-4-yl]-1H-pyrazol-1-yl}cyclohexanol diformate salt] | 100 to 1000 | < 100 | 100 to 1000 |  |
| CC(=O)N1CCC(n2cc(-c3cnc(N)c4oc(-c5cn[nH]c5)cc34)cn2)CC1 [Example 115, 1-(4-{4-[7-amino-2-(1H-pyrazol-4-yl)furo[2,3-c]pyridin-4-yl]-1H-pyrazol-1-yl}piperidin-1-yl)ethanone] | > 10000 | 1000 to 10000 | 100 to 1000 |  |
| Nc1ncc(-c2cnn(C3CCN(CCF)CC3)c2)c2cc(-c3cccc4cnccc34)oc12 [Example 83, 4-{1-[1-(2-fluoroethyl)piperidin-4-yl]-1H-pyrazol-4-yl}-2-(isoquinolin-5-yl)furo[2,3-c]pyridin-7-amine] | 100 to 1000 | < 100 | 100 to 1000 |  |
| Nc1ncc(-c2cnn([C@H]3CC[C@H](O)CC3)c2)c2cc(-c3cccc4nnsc34)oc12 [Example 229, trans-4-{4-[7-amino-2-(1,2,3-benzothiadiazol-7-yl)furo[2,3-c]pyridin-4-yl]-1H-pyrazol-1-yl}cyclohexanol] | < 100 | < 100 |  | < 100 |
| Cc1nn(CC(O)CO)c(C)c1-c1cnc(N)c2oc(-c3cccc4cnccc34)cc12 (stereo not drawn) [Example 400, 3-{4-[7-amino-2-(isoquinolin-5-yl)furo[2,3-c]pyridin-4-yl]-3,5-dimethyl-1H-pyrazol-1-yl}propane-1,2-diol] | 1000 to 10000 | 1000 to 10000 | > 10000 |  |
| CC(=O)N1CCC(n2cc(-c3cnc(N)c4oc(-c5cc(C)c(O)c(C)c5)cc34)cn2)CC1 [Example 138, 1-(4-{4-[7-amino-2-(4-hydroxy-3,5-dimethylphenyl)furo[2,3-c]pyridin-4-yl]-1H-pyrazol-1-yl}piperidin-1-yl)ethanone] | 1000 to 10000 | 100 to 1000 | 1000 to 10000 |  |
| CC(=O)N1CCC(n2cc(-c3cnc(N)c4oc(-c5c(C)n[nH]c5C)cc34)cn2)CC1 [Example 180, 1-(4-{4-[7-amino-2-(3,5-dimethyl-1H-pyrazol-4-yl)furo[2,3-c]pyridin-4-yl]-1H-pyrazol-1-yl}piperidin-1-yl)ethanone] | 1000 to 10000 | 1000 to 10000 | 100 to 1000 |  |
| Nc1ncc(-c2cnn([C@H]3CC[C@H](O)CC3)c2)c2cc(-c3csc4cnccc34)oc12 [Example 233, trans-4-{4-[7-amino-2-(thieno[2,3-c]pyridin-3-yl)furo[2,3-c]pyridin-4-yl]-1H-pyrazol-1-yl}cyclohexanol] | < 100 | < 100 | < 100 |  |
| CC(=O)N1CCC(n2cc(-c3cnc(N)c4oc(-c5ccc6c(c5)CNC6=O)cc34)cn2)CC1 [Example 98, 5-{4-[1-(1-acetylpiperidin-4-yl)-1H-pyrazol-4-yl]-7-aminofuro[2,3-c]pyridin-2-yl}-2,3-dihydro-1H-isoindol-1-one] | > 10000 | > 10000 | > 10000 |  |
| CC(=O)N1CC(n2cc(-c3cnc(N)c4oc(-c5csc6cnccc56)cc34)cn2)C1 [Example 316, 1-{3-[4-(7-amino-2-thieno[2,3-c]pyridin-3-yl-furo[2,3-c]pyridin-4-yl)-pyrazol-1-yl]-azetidin-1-yl}-ethanone] | 100 to 1000 | 100 to 1000 | < 100 |  |
| CC(=O)c1cccc(-c2cc3c(-c4cnn(C5CCN(C(C)=O)CC5)c4)cnc(N)c3o2)c1 [Example 124, 1-(4-{4-[2-(3-acetylphenyl)-7-aminofuro[2,3-c]pyridin-4-yl]-1H-pyrazol-1-yl}piperidin-1-yl)ethanone] | 1000 to 10000 | 100 to 1000 | 1000 to 10000 |  |
